Like-named read-outs stand apart in the source and are kept apart here.
Experiments:
[1] = tested on: Trypanosoma cruzi amastigotes (Tulahuen strain) cultured in 3T3 fibroblast cells; assay: Assay for proliferation of kinetoplastid parasite Trypanosoma cruzi; format: cell-based; conditions: 144 h, 6 day incubation
Text: Assay for Proliferation of Kinetoplastid Parasite Trypanosoma cruzi.
Compounds of the invention can be assayed to measure their capacity to inhibit proliferation of kinetoplastid parasite Trypanosoma cruzi. The screening procedure is for identifying compounds with inhibitor activity against Trypanosoma cruzi amastigotes cultured in 3T3 fibroblast cells. The assay is done using the mammalian stage (amastigotes) of T. cruzi that replicates in the intracellular space of host cells. The host cells are initially infected with the culture-derived trypomastigotes that rapidly invade and then divide as amastigotes. The protocol uses the Tulahuen strain of T. cruzi that has been engineered to express the E. coli beta-galactosidase gene (Lac-Z) (Antimicr. Agents Chemoth. 40:2592, 1996). This allows for a colorimetric readout by using the substrate CPRG and an absorbance plate reader.
3T3 fibroblast cells are re-suspended in RPMI-1640 medium without phenol red medium supplemented with 10% FBS (heat inactivated), 100 μg/ml penicillin, and 100 μg/ml streptomycin. Forty μL of suspension (1,000 cells) is dispensed into 384-well plates and incubated overnight at 37° C. temperature and in atmosphere containing 5% CO2. The following day, 100 nL of compounds of the invention in DMSO are added to plate wells containing 3T3 cells. At the same time control compounds (benznidazole and nifurtimox) and DMSO are added to plates to serve as the positive and negative controls, respectively. After that, 10 μL of media containing 10,000 T. cruzi trypomastigotes are added to each plate well and plates are placed back into incubators. After 6 day incubation, 10 μL of reagent solution (0.6 mM CPRG, 0.6% NP-40 in PBS) is added to plates and incubated at room temperature for 2 hours. Absorbance is then measured on SpectraMax Gemini […] to determine relative number of T. cruzi cells present in each plate well. The percentage inhibition of 50%, EC50, is calculated for each compound. […] Typically, the EC50 is 10 μM or less.

[2] = tested on: L. donovani HU3 strain in mouse peritoneal macrophages; assay: Assay for proliferation of Leishmania parasites in mouse peritoneal macrophages; format: cell-based, Leishmania donovani; conditions: Leishmania donovani, Peritoneal macrophage
Procedure, shortened: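 BALB/c peritoneal macrophages infected 24 h with L. donovani HU3 amastigotes taken from spleens of mice infected 9–11 weeks, then treated with compound for 5 days at 37° C, 5% CO2. Parasite nuclei counted by SYBR Green imaging after fixation; EC50 from percentage inhibition.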

[3] = tested on: Leishmania donovani axenic amastigote parasites; assay: Leishmania donovani axenic amastigote proliferation assay; format: cell-based; conditions: axenic amastigotes in vitro, read-out: L. donovani amastigotes EC50
Procedure, shortened: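 L. donovani axenic amastigotes (9600/well) in RPMI 1640 with 20% heat-inactivated FBS, folic acid, adenosine, glucose and 25 mM MES, pH 5.5, were incubated with compounds for 2 days at 37 °C, 5% CO2. Viability read by CellTiter-Glo luminescence; EC50 calculated.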

[4] = tested on: Trypanosoma brucei Lister 427 strain bloodstream form; assay: Assay for proliferation of kinetoplastid parasite Trypanosoma brucei; format: cell-based
Procedure, shortened: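 Bloodstream-form T. brucei Lister 427 in HMI-9 medium was exposed to compound (DMSO vehicle) for 48 hours at 37° C, 5% CO2. Parasite growth was read as ATP by CellTiter-Glo luminescence, with EC50 calculated from percent inhibition.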

[5] = read-out: L. donavani Macrophage EC50
[6] = Tulahuen amastigotes in 3T3 fibroblast cells, read-out: T cruzi EC50
[7] = Lister 427 bloodstream form, 48 hours, read-out: T. brucei EC50

CN(C(=O)OC(C)(C)C)c1ccc(-c2cnc3nc(-c4cc(NC(=O)N5CCCC5)ccc4Cl)[nH]c3c2)cc1 [Compound 332, tert-butyl N-[4-(2-{2-chloro-5-[(pyrrolidin-1-yl)carbonylamino]phenyl}-1H-imidazo[4,5-b]pyridin-6-yl)phenyl]-N-methylcarbamate]
EC50 ([1]; TULAHUEN, T. cruzi in 3T3 fibroblast cells, CPRG absorbance, read-out: EC50): 0.006 µM

Cc1cnc2nc(-c3cc(NC(=O)Cc4ccc(F)cc4)ccc3Cl)[nH]c2c1 [Compound 125]
EC50 [2, 5]: 8.6 µM | EC50 [1, 6]: 9.6 µM | EC50 [3]: > 25 µM | EC50 [4, 7]: 10 µM

Cc1cnc2nc(-c3cc(NC(=O)c4ccc(C)[nH]4)ccc3Cl)[nH]c2c1 [Compound 124]
EC50 [2, 5]: 13.8 µM | EC50 [1, 6]: > 14.3 µM | EC50 [3]: > 25 µM | EC50 [4, 7]: > 25 µM

Cc1cnc2nc(-c3cc(NC(=O)c4cnc(Cl)cn4)ccc3Cl)[nH]c2c1 [Compound 135]
EC50 [2, 5]: > 25.9 µM | EC50 [1, 6]: > 20 µM | EC50 [3]: > 25 µM | EC50 [4, 7]: > 1.51 µM

COc1ccc(-c2cnc3nc(-c4cc(NC(=O)c5ccco5)ccc4Cl)[nH]c3c2)cn1 [Compound 29, N-{4-chloro-3-[6-(6-methoxypyridin-3-yl)-1H-imidazo [4,5-b]pyridin-2-yl]phenyl}furan-2-carboxamide]
EC50 [2, 5]: 2.29 µM | EC50 [1, 6]: 0.071 µM | EC50 [3]: 0.234 µM | EC50 [4, 7]: 0.0235 µM | EC50 ([4]; T. brucei Lister 427, 48 hours, Cell Titer Glo, read-out: EC50): 0.024 µM

Cc1cnc2nc(-c3cc(NC(=O)N(C)C)ccc3Cl)[nH]c2c1 [Compound 243]
EC50 [2, 5]: 39.6 µM | EC50 [1, 6]: 2.58 µM | EC50 [3]: 5 µM | EC50 [4, 7]: 0.45 µM

Cc1cnc2nc(-c3cc(NC(=O)c4cccc(Cl)c4)ccc3Cl)[nH]c2c1 [Compound 89]
EC50 [2, 5]: 9.2 µM | EC50 [1, 6]: 0.175 µM | EC50 [3]: 3.7 µM | EC50 [4, 7]: 0.26 µM

COCCOC(=O)Nc1ccc(Cl)c(-c2nc3ncc(-c4ccc5c(c4)CC(=O)N5)cc3[nH]2)c1 [Compound 379]
EC50 [2, 5]: 8.7 µM | EC50 [1, 6]: 13.2 µM | EC50 [3]: 1.49 µM | EC50 [4, 7]: 0.69 µM

Cc1cnc2nc(-c3cc(NC(=O)OC4CCCC4)ccc3Cl)[nH]c2c1 [Compound 218]
EC50 [2, 5]: 7.5 µM | EC50 [1, 6]: 2.14 µM | EC50 [3]: > 25 µM | EC50 [4, 7]: 14.9 µM

Cc1cnc2nc(-c3cc(NC(=O)C4CCCCO4)ccc3Cl)[nH]c2c1 (stereo not shown) [Compound 131]
EC50 [2, 5]: > 50 µM | EC50 [1, 6]: 6.8 µM | EC50 [3]: 22.1 µM | EC50 [4, 7]: 5.1 µM

Cc1cnc2nc(-c3cc(NC(=O)c4ccccn4)ccc3Cl)[nH]c2c1 [Compound 83]
EC50 [2, 5]: 23.3 µM | EC50 [1, 6]: 1.3 µM | EC50 [3]: 7 µM | EC50 [4, 7]: 0.93 µM

CN(C(=O)OC(C)(C)C)c1ccc(-c2cnc3nc(-c4cc(NC(=O)N5CCCC5)ccc4Cl)[nH]c3c2)cc1 [Compound 308, tert-butyl N-[4-(2-{2-chloro-5-[(pyrrolidin-1-yl)carbonylamino]phenyl}-1H-imidazo[4,5-b]pyridin-6-yl)phenyl]-N-methylcarbamate]
EC50 ([2]; 120 h, L. donovani in mouse peritoneal macrophages, 5 days culture, SybrGreen parasite nuclei count, read-out: EC50): ~0.08 µM | EC50 [2, 5]: 0.085 µM | EC50 [1, 6]: 0.023 µM | EC50 [3]: 0.114 µM | EC50 [4, 7]: 0.025 µM

O=C1Cc2cc(-c3cnc4nc(-c5cc(NC(=O)C6CCCC6)ccc5Cl)[nH]c4c3)ccc2N1 [Compound 377]
EC50 [2, 5]: 5.8 µM | EC50 [1, 6]: 2.06 µM | EC50 [3]: 6.6 µM | EC50 [4, 7]: 0.58 µM

Cc1cnc2nc(-c3cc(NC(=O)N4CCN(C)CC4)ccc3Cl)[nH]c2c1 [Compound 244]
EC50 [2, 5]: > 50 µM | EC50 [1, 6]: > 20 µM | EC50 [3]: > 25 µM | EC50 [4, 7]: > 25 µM

O=C(Nc1ccc(Cl)c(-c2nc3ncc(Br)cc3[nH]2)c1)C1CCCC1 [Compound 374]
EC50 [2, 5]: 5.9 µM | EC50 [1, 6]: 0.85 µM | EC50 [3]: 16.5 µM | EC50 [4, 7]: 5.1 µM

CS(=O)(=O)c1ccc(-c2cnc3nc(-c4cc(NC(=O)N5CCCC5)ccc4Cl)[nH]c3c2)cc1 [Compound 297]
EC50 [2, 5]: 5.5 µM | EC50 [1, 6]: 5.3 µM | EC50 [3]: 1.59 µM | EC50 [4, 7]: 0.187 µM

O=C(Nc1ccc(Cl)c(-c2nc3ncc(Br)cc3[nH]2)c1)c1cnccn1 [Compound 375]
EC50 [2, 5]: > 42.7 µM | EC50 [1, 6]: 3.9 µM | EC50 [3]: 7.5 µM | EC50 [4, 7]: 2.35 µM

CNC(=O)Nc1ccc(Cl)c(-c2nc3ncc(C)cc3[nH]2)c1 [Compound 238]
EC50 [2, 5]: 29.3 µM | EC50 [1, 6]: > 20 µM | EC50 [3]: > 25 µM | EC50 [4, 7]: 9.2 µM

Cc1cnc2nc(-c3cc(NC(=O)c4cnc[nH]4)ccc3Cl)[nH]c2c1 [Compound 128]
EC50 [2, 5]: > 50 µM | EC50 [1, 6]: > 20 µM | EC50 [3]: > 25 µM | EC50 [4, 7]: > 25 µM

CCN(CC)CCCCCCNC(=O)Nc1ccc(Cl)c(-c2nc3ncc(C)cc3[nH]2)c1 [Compound 227]
EC50 [2, 5]: > 50 µM | EC50 [1, 6]: > 20 µM | EC50 [3]: > 25 µM | EC50 [4, 7]: > 15.2 µM

Cc1cnc2nc(-c3cc(NC(=O)c4ccc(F)s4)ccc3Cl)[nH]c2c1 [Compound 185]
EC50 [2, 5]: > 30.7 µM | EC50 [1, 6]: 0.96 µM | EC50 [3]: 11.2 µM | EC50 [4, 7]: 1.77 µM

CON(C)C(=O)Nc1ccc(Cl)c(-c2nc3ncc(C)cc3[nH]2)c1 [Compound 240]
EC50 [2, 5]: 6.1 µM | EC50 [1, 6]: 0.7 µM | EC50 [3]: 2.06 µM | EC50 [4, 7]: 0.45 µM

Cc1cnc2nc(-c3cc(NC(=O)c4cccc(N5CCOCC5)c4)ccc3Cl)[nH]c2c1 [Compound 195]
EC50 [2, 5]: > 50 µM | EC50 [1, 6]: 8.8 µM | EC50 [3]: 21.2 µM | EC50 [4, 7]: 7.8 µM

Cc1cnc2nc(-c3cc(NC(=O)c4cccn4C)ccc3Cl)[nH]c2c1 [Compound 151]
EC50 [2, 5]: 19.5 µM | EC50 [1, 6]: 3.7 µM | EC50 [3]: 17.1 µM | EC50 [4, 7]: 1.83 µM

Cc1cnc2nc(-c3cc(NC(=O)c4ccc(C)o4)ccc3Cl)[nH]c2c1 [Compound 126]
EC50 [2, 5]: 1.63 µM | EC50 [1, 6]: 0.148 µM | EC50 [3]: 1.6 µM | EC50 [4, 7]: 0.303 µM

Cc1cnc2nc(-c3cc(NC(=O)c4ccc(Cl)s4)ccc3Cl)[nH]c2c1 [Compound 152]
EC50 [2, 5]: 4.5 µM | EC50 [1, 6]: > 11.5 µM | EC50 [3]: > 25 µM | EC50 [4, 7]: 5.6 µM

COCCOc1ccc(-c2cnc3nc(-c4cc(NC(=O)c5ccco5)ccc4Cl)[nH]c3c2)c(F)n1 [Compound 52]
EC50 [2, 5]: > 14.5 µM | EC50 [1, 6]: 0.068 µM | EC50 [3]: 0.188 µM | EC50 [4, 7]: 0.036 µM

Cc1cnc2nc(-c3cc(NC(=O)NCCN(C(C)C)C(C)C)ccc3Cl)[nH]c2c1 [Compound 236]
EC50 [2, 5]: 28.8 µM | EC50 [1, 6]: 17.9 µM | EC50 [3]: > 25 µM | EC50 [4, 7]: 1.11 µM

Cc1ccc(C(=O)Nc2ccc(Cl)c(-c3nc4ncc(C(F)(F)F)cc4[nH]3)c2)o1 [Compound 279]
EC50 [2, 5]: 2.25 µM | EC50 [1, 6]: 0.141 µM | EC50 [3]: 0.57 µM | EC50 [4, 7]: 0.311 µM

CC(C)(C)OC(=O)N1CC=C(c2cnc3nc(-c4cc(NC(=O)c5ccco5)ccc4Cl)[nH]c3c2)CC1 [Compound 63]
EC50 [2, 5]: 1.6 µM | EC50 [1, 6]: 0.108 µM | EC50 [3]: 0.56 µM | EC50 [4, 7]: 0.0217 µM

Cc1cnc2nc(-c3cc(NC(=O)N(C)C4CCCC4)ccc3Cl)[nH]c2c1 [Compound 231]
EC50 [2, 5]: 27.9 µM | EC50 [1, 6]: > 20 µM | EC50 [3]: > 25 µM | EC50 [4, 7]: > 23.2 µM

Cc1cnc2nc(-c3cc(NC(=O)C4CCCO4)ccc3Cl)[nH]c2c1 (stereo not shown) [Compound 138]
EC50 [2, 5]: > 50 µM | EC50 [1, 6]: > 20 µM | EC50 [3]: > 25 µM | EC50 [4, 7]: > 25 µM

Cc1cnc2nc(-c3cc(NC(=O)N4CC(F)(F)C[C@@H]4c4cccc(F)c4)ccc3Cl)[nH]c2c1 [Compound 229]
EC50 [2, 5]: > 50 µM | EC50 [1, 6]: > 20 µM | EC50 [3]: > 25 µM | EC50 [4, 7]: > 23.3 µM

O=C(Nc1ccc(Cl)c(-c2nc3ncc(-c4ccc(OCc5ccccc5)cc4)cc3[nH]2)c1)c1ccco1 [Compound 47]
EC50 [2, 5]: > 7.2 µM | EC50 [1, 6]: 0.104 µM | EC50 [3]: 0.46 µM | EC50 [4, 7]: 0.04 µM

O=C(Cc1cccc(Cl)c1)Nc1ccc(Cl)c(-c2nc3ncc(C(F)(F)F)cc3[nH]2)c1 [Compound 280]
EC50 [2, 5]: 27.4 µM | EC50 [1, 6]: 3.4 µM | EC50 [3]: 21.2 µM | EC50 [4, 7]: > 13.6 µM

Source: patent US9233961B2, “Compounds and compositions for the treatment of parasitic diseases” (Novartis AG, priority 2013, dated 2016)
